Laboratory results published in patent US10919908B2, “Thienopyrimidinone derivative and application thereof in preparing anticancer drug” (Henan Genuine Biotech Co., Ltd., priority 2017, dated 2021).

What was measured:
[1] = test system: Multiple myeloma tumor cells (H929); assay: In vitro cytotoxicity, MTT assay, 48 hours exposure; type: cell-based; conditions: Homo sapiens, NCI-H929, MTT cell viability
Procedure: Multiple myeloma tumor cells (H929) were used for toxicity studies, and the cells were distributed in microtiter plates and exposed to the compounds tested for 48 hours.

Mcl-1 protein = Mcl-1 protein (Homo sapiens, UniProt Q07820); assay: Inhibition of Mcl-1 activity by fluorescence polarization (FP) competition with a fluorescein-labeled ligand; type: binding; conditions: 10 nM Mcl-1 protein, 10 nM labeled ligand, 2 hours at room temperature
Sequence of Mcl-1 protein (Q07820 whole entry): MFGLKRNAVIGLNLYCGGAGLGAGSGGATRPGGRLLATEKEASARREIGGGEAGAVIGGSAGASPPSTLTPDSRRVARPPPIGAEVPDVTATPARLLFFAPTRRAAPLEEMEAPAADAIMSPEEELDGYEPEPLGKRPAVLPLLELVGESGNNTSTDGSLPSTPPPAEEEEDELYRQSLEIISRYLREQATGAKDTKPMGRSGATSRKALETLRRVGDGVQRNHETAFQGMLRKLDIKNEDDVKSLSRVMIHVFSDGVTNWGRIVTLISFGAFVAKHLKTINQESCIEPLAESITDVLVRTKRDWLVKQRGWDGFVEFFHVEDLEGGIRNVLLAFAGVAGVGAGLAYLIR

IC50 (Mcl-1 protein) | SMILES | IC50 [1]
– | Cc1c(-c2c(-c3ccc(F)o3)sc3ncnc(O[C@H](Cc4ccccc4OCc4ccnn4CC(F)(F)F)C(=O)O)c23)ccc(OCCN2CCN(C)CC2)c1Cl [II, reference compound] | > 0.01 µM
0.001 to 0.01 µM | Cc1c(-c2c(-c3ccc(F)o3)sc3ncnc(O[C@H](C(=O)O)C(F)(F)c4ccccc4OCc4ccnn4CC(F)(F)F)c23)ccc(OCCN2CCN(C)CC2)c1Cl [Compound 103] | > 0.01 µM
< 0.001 µM | Cc1c(-c2c(-c3ccc(F)o3)sc3ncnc(O[C@@H](C(=O)O)C(F)(F)c4ccccc4OCc4ccnn4CC(F)(F)F)c23)ccc(OCCN2CCN(C)CC2)c1Cl [Compound 102] | > 0.01 µM
